Literature values, collected in patent US20230064685A1, “METHODS AND COMPOSITIONS TO INHIBIT SYMPTOMS ASSOCIATED WITH VEISALGIA” (SEN-JAM PHARMACEUTICAL LLC, priority 2015, published 2023).

Key:
alcohol hangover = conditions: randomized controlled trials reviewed by Pittler et al. 2005
[1] = system: hangover symptom of thirst; conditions: each drug alone; general statement, no test described

SMILES | intergroup differences for overall symptom scores and individual symptoms (alcohol hangover) | effect or side effect of reducing thirst [1]
Cc1c(Cl)cccc1Nc1ccccc1C(=O)O [tolfenamic acid] | Significant intergroup differences | 
COc1ccc2cc(C(C)C(=O)O)ccc2c1 (stereo not drawn) [naproxen, 6-methoxy-α-methyl-2-naphthaleneacetic acid] |  | neither naproxen nor fexofenadine, alone, has shown any effect or side effect of reducing thirst
CC(C)(C(=O)O)c1ccc(C(O)CCCN2CCC(C(O)(c3ccccc3)c3ccccc3)CC2)cc1 (racemic) [fexofenadine, (±)-4-[1 hydroxy-4-[4-(hydroxydiphenylmethyl)-1-piperidinyl]-butyl]-α, α-dimethyl benzeneacetic acid] |  | neither naproxen nor fexofenadine, alone, has shown any effect or side effect of reducing thirst
CCCCC/C=C\C/C=C\C/C=C\CCCCC(=O)O [γ linolenic acid from B officinalis, γ linolenic acid] | Significant intergroup differences | 
